According to patent US20220339135A1, “COMPOSITIONS AND METHODS FOR MODULATING AN INFLAMMATORY RESPONSE” (Enzychem Lifesciences Corporation, priority 2019, published 2022):
Several values for one entry are separate records, joined by “and”; a condition that tells them apart may be missing. Equal entries are not always repeated.

Columns and labels:
[1] = tested on: chemo-radiation and PAK induced oral mucositis; test: Chemo-radiation and PAK induced oral mucositis; assay type: in vivo, mice; settings: PLAG 250 mg/kg oral daily, n=19
Protocol: To induce immunocompromised condition in mice of CRIN group and EC-18 group, mice were administered by intraperitoneal injection with 30 mg/kg of 5-FU (Sigma) once a day for 3 days (Sigma) and five days after the experiment initiated, 1Gy of γ-radiation at once. For the EC-18 group, EC-18 (Enzychem Lifesciences, Daejeon, Republic of Korea) was orally given at a dose of 250 mg/kg once a day during the study period. The experimental schedule is described in FIG. 1. On day 6 after the experiment initiated, all the mice of 2 groups (CRIN group, and EC-18 group) were anesthetized with 2% 2, 2, 2,-tribromoethanol by intraperitoneal injection and infected with P. aeruginosa K (PAK) by syringe in the tongue. 1 day after PAK injection, the condition of the tongue and survival rate of mice were monitored and recorded.
P. aeruginosa K was cultured in LB broth or on LB agar plates overnight at 37° C. until they were in log-phase growth. […] The bacterial pellet was suspended to the appropriated number of colony-forming unit (CFU) per milliliter in PBS, as determined by optical density and plating out a serial dilution on broth agar plates. […]
Chemoradiotherapy induced immunocompromised mice were challenged with PAK. […] After the challenge, mice were monitored for 1 day, and the survival rate of mice was recorded.

[2] = tested on: ERK, JNK, p38MAPK in differentiated HaCaT cells; test: IMQ-induced MAPK phosphorylation, western blot; assay type: cell-based; settings: PLAG 1, 10, 100 μg/ml, dose-dependent
Protocol: Differentiated HaCaT cells were divided into three groups: 1) control (non-treated) group, 2) IMQ treated group, and 3) IMQ/PLAG treated group. For IMQ treated group, cells were stimulated with IMQ (5 μg/ml) for 0, 20, 60 minutes. For IMQ/PLAG treated group, cells were pre-incubated with PLAG (1, 10, 100 μg/ml) for 1 hour and then stimulated with IMQ (5 μg/ml) for an hour. Then, cells were harvested. Cells were ruptured with 1×RIPA lysis buffer (Cell Signaling Technology) containing the protease inhibitor (Roche, Indianapolis, Ind., USA), and phosphatase inhibitor (Thermo Fisher Scientific Inc.) on ice. The cell lysates were then clarified by centrifugation and samples were analyzed on polyacrylamide gels. Each sample was separated by sodium dodecyl sulfate-polyacrylamide gel electrophoresis (SDS-PAGE) on polyacrylamide gels and the proteins were blotted onto a PVDF membrane (Bio-Rad). The membrane was blocked with 5% BSA (Gibco) in PBS containing 0.05% Tween-20 (Merck Millipore, Billerica, Mass., USA). The membrane was incubated with antibodies against phosphor-ERK (Thr202/Tyr204), ERK, phosphor-JNK (Thr183/Tyr185), SAPK/JNK, phosphor-p38MAPK (Thr180/thr182), and p38MAPK, overnight at 4° C. All antibodies were purchased from Cell signaling technology. Target proteins were detected with Immobilon Western Chemiluminescent HRP Substrate (Merck Millipore).

5-FU-induced neutropenia = 5-FU-induced neutropenia in mice; assay type: in vivo; settings: for Mean Duration of Neutropenia in Days (±SE, range) / Mean the First Day Neutropenia (ANC <500 cells/μL) (±SE, range): 5-FU 100 mg/kg
Protocol: Male BALB/c mice (8 weeks of age) were randomly divided into 3 cohorts; control cohort (n=5), EC-18 125 mg/kg-treated cohort (n=5) and EC-18 250 mg/kg (n=5). The mice were intraperitoneally (i.p.) injected once with 100 mg/kg 5-FU to induce neutropenia, as shown in the experimental scheme (FIG. 46A). EC-18 was suspended in phosphate-buffered saline (PBS) and orally administrated at a dose of 125 or 250 mg/kg once a day, starting on the same day of 5-FU injection. The control cohort was administered PBS only during the experiment. The whole blood was collected from the orbital sinuses using EDTA-free capillary tubes (Kimble Chase Life Science and Research Products LLC, FL, USA) and collection tubes containing K3E-K3EDTA (Greiner Bio-One International, Kremsmünster, Austria). The blood cells were counted and classified by complete blood count (CBC) analysis using Mindray BC-5000 auto-hematology analyzer (Shenzhen Mindray Biomedical Electronics, Guangdong Sheng, China).
The results were expressed as the mean±standard deviation (SD). Statistical analysis was performed using a Student's paired t-test and p values <0.05 were considered statistically significant. A […] Log-rank (Mantel-Cox) test was used to compare the duration of neutropenia and time to recovery from neutropenia between control and EC-18-treated cohorts.

[3] = tested on: NET formation of neutrophil, bone marrow-derived cells; test: NETosis of PAK-introduced bone marrow-derived cells; assay type: cell-based; settings: PAK/PLAG vs PAK
Protocol: 2 hours after PAK infection, bone marrow-derived cells were harvested and detected extracellular DNA-elastase complex by using ELISA and visualized by using confocal microscopy (×400) or scanning electron microscope (SEM) (×8000). […] cells were washed with PBS and mounted in DAPI-containing fluorescence microscopy mounting medium (Invitrogen). Samples were analyzed with a laser scanning confocal microscope (Carl Zeiss, Oberkochen, Germany).

skin erythema injury = test: Radiation-induced skin erythema in mice; assay type: in vivo; settings: 8Gy TBI, PLAG 250 mg/kg daily 17 days
Protocol: 9 weeks Balb/c mice were divided into two groups: 1) radiated group (8Gy of TBI by γ-ray) and 2) PLAG (250 mg/kg of PLAG daily for 17 days) administrated group with radiation (8Gy of TBI) (FIG. 38A).

CCCCC/C=C\C/C=C\CCCCCCCC(=O)OC(COC(C)=O)COC(=O)CCCCCCCCCCCCCCC (racemic) [PLAG, 1-palmitoyl-2-linoleoyl-3-acetylglycerol]
survival rate after 7 days [1]: 84% | IMQ-induced phosphorylation of ERK, JNK, p38 MAPK [2]: attenuated | Mean Duration of Severe Neutropenia in Days (±SE, range) (5-FU-induced neutropenia; EC-18 125 mg/kg): 2 (6-7) Days | Mean Number of Days to Recovery - ANC ≥ 500/μL (±SE, range) (5-FU-induced neutropenia; EC-18 125 mg/kg): 7.4 ± 0.55 (7-8) Days | Mean Number of Days to Recovery - ANC ≥ 1000/μL (±SE, range) (5-FU-induced neutropenia; EC-18 125 mg/kg): 8 ± 1.22 (7-10) Days | Number of Individuals of Severe Neutropenia (ANC <100 cells/μL) (5-FU-induced neutropenia; EC-18 125 mg/kg): 1/5 | Mean Duration of Neutropenia in Days (±SE, range) (5-FU-induced neutropenia; EC-18 125 mg/kg): 2.6 ± 0.55 (5-8) Days | Mean the First Day Neutropenia (ANC <500 cells/μL) (±SE, range) (5-FU-induced neutropenia; EC-18 125 mg/kg): 5.8 ± 0.45 (5-6) days | Nadir of ANC (5-FU-induced neutropenia; EC-18 125 mg/kg, 125 mg/kg): 236±4.47 cells/μL and 236 ± 121.57 cells/μL | Mean Duration of Severe Neutropenia in Days (±SE, range) (5-FU-induced neutropenia; EC-18 250 mg/kg): 2 (6-7) Days | Mean Number of Days to Recovery - ANC ≥ 500/μL (±SE, range) (5-FU-induced neutropenia; EC-18 250 mg/kg): 7.6 ± 0.55 (7-8) Days | Mean Number of Days to Recovery - ANC ≥ 1000/μL (±SE, range) (5-FU-induced neutropenia; EC-18 250 mg/kg): 8.8 ± 1.09 (7-10) Days | Number of Individuals of Severe Neutropenia (ANC <100 cells/μL) (5-FU-induced neutropenia; EC-18 250 mg/kg): 1/5 | Mean Duration of Neutropenia in Days (±SE, range) (5-FU-induced neutropenia; EC-18 250 mg/kg): 3.0 ± 0.71 (5-8) Days | Mean the First Day Neutropenia (ANC <500 cells/μL) (±SE, range) (5-FU-induced neutropenia; EC-18 250 mg/kg): 5.8 ± 0.45 (5-6) days | Nadir of ANC (5-FU-induced neutropenia; EC-18 250 mg/kg, 250 mg/kg): 158±11.32 cells/μL | time of recovery to an ANC≥500 or 1000 cells/μL (5-FU-induced neutropenia; EC-18 125 and 250 mg/kg-treated cohorts): significantly reduced | 5-FU-induced reduction of blood monocytes (5-FU-induced neutropenia; EC-18 125 or 250mpk): remarkably mitigated | duration of severe neutropenia (5-FU-induced neutropenia; EC-18, dose not split in text): 2 days | individuals that experienced severe neutropenia (ANC<100 cells/μL) (5-FU-induced neutropenia; both EC-18 125 and 250 mg/kg-treated cohorts): 20% | NET formation of neutrophil [3]: accelerated | erythema on mouse foot and tail (skin erythema injury): significantly weak or no erythema
